From ChEMBL document CHEMBL1201862, “PubChem BioAssay data set” (2004)
Activity calls are given as the source filed them.

Legend:
Jurkat = experiment: SAR Analysis of small molecule inhibitors of […] specific antigen receptor-induced NF-kB activation in a Jurkat cell line using a luminescence assay - Set 3. [Related pubchem assays (depositor defined):AID435022, AID435025, AID465]; format: functional, cell-based; details: Homo sapiens
HEK293 [1] = experiment: SAR Analysis of small molecule inhibitors of B-cell specific antigen receptor-induced NF-kB activation in a HEK-293T cell line using a luminescence assay - Set 2. [Related pubchem assays (depositor defined):AID435022, AID435025, AID489021]; format: functional, cell-based; details: Homo sapiens
HEK293 [2] = experiment: HEK293T cell viability loss, resazurin readout – resazurin fluorescence, cytotoxicity control for NF-kB activator project, SAR follow-up (AID 493251); format: functional, cell-based; details: Homo sapiens
DNA topoisomerase = DNA topoisomerase (Yersinia pestis, UniProt A0A2S9PM60); experiment: Yersinia topoisomerase I cleavage product accumulation – biochemical, cherry-pick, dose response (AID 588525)
Chain of DNA topoisomerase (A0A2S9PM60 whole entry): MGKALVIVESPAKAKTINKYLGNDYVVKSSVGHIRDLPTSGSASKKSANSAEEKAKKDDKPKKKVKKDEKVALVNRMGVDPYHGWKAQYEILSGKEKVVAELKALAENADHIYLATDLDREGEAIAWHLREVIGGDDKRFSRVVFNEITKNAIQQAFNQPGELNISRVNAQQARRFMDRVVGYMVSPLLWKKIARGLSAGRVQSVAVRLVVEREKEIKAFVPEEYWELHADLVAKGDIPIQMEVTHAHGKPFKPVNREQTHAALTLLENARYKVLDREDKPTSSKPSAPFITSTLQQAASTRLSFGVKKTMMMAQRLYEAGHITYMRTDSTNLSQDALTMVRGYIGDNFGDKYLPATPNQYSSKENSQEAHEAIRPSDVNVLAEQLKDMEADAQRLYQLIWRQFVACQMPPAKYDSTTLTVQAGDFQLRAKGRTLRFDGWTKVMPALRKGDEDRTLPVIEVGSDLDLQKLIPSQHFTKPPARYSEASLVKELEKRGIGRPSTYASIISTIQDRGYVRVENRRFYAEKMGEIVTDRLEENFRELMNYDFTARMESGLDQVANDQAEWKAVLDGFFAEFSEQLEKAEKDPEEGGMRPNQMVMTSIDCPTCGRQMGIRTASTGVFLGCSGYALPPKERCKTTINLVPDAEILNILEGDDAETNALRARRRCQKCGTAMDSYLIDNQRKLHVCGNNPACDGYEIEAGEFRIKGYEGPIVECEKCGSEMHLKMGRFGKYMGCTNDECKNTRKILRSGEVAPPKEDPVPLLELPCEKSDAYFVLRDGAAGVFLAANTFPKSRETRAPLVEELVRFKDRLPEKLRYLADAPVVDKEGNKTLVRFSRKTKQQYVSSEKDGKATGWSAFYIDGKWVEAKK

[3] = potency of ADAM10 substrate cleavage blockers – biochemical, QFRET, dose response (AID 743254);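 further: ADAM10 enzyme with the DM2 quenched FRET peptide as substrate; EDANS fluorescence gain as the protease cuts the substrate; inhibitor potency against ADAM10 proteolytic activity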
[4] = molecular target: Disintegrin and metalloproteinase domain-containing protein 17 (Homo sapiens, UniProt P78536); experiment: inhibition of ADAM17 substrate cleavage – biochemical, quenched FRET substrate, counter-screen for ADAM10 exosite inhibitor project, dose response (AID 743253)
Chain of Disintegrin and metalloproteinase domain-containing protein 17 (P78536 whole entry, the tested form may be a part): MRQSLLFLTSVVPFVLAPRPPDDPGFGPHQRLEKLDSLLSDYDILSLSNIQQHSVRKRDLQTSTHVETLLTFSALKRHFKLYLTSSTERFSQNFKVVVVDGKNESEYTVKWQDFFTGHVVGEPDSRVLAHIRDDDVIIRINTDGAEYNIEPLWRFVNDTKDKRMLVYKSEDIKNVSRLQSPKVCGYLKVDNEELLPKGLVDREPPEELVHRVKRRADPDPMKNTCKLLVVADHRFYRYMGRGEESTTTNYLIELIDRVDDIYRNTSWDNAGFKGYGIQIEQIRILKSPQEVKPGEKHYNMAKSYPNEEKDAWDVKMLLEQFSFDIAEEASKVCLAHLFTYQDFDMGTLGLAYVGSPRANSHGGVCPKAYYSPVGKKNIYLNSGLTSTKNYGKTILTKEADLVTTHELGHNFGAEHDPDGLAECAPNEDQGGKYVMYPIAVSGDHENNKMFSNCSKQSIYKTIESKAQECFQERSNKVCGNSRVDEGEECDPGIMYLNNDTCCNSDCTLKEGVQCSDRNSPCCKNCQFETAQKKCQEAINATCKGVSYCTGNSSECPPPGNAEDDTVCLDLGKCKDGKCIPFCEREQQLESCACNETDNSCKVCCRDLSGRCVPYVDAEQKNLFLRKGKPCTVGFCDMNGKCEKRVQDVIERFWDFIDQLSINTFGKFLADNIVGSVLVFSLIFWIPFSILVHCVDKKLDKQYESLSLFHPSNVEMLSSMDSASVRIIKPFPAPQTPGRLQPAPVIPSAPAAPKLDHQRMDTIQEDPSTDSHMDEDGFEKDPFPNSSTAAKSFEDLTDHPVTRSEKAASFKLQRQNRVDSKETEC

[5] = molecular target: T1, Sentrin-specific protease 8 (Homo sapiens, UniProt Q96LD8); experiment: inhibition of human SENP8 cleavage activity – biochemical, luminescence, SAR follow-up (AID 504501); format: functional
T1 sequence (Q96LD8 whole entry): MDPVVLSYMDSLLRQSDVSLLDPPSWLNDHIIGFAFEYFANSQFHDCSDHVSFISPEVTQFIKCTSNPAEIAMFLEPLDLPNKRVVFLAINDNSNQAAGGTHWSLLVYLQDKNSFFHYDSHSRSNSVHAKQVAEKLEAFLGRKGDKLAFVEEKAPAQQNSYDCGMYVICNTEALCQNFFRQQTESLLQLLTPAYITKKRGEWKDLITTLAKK

Caspase-3 [6] = molecular target: T2, Caspase-3 (Homo sapiens, UniProt P42574); experiment: inhibition of recombinant caspase-3 activity – biochemical, luminescence, set 2, selectivity assay for SENP protease inhibitor project, SAR follow-up (AID 588599); format: functional
T2 sequence (P42574 whole entry): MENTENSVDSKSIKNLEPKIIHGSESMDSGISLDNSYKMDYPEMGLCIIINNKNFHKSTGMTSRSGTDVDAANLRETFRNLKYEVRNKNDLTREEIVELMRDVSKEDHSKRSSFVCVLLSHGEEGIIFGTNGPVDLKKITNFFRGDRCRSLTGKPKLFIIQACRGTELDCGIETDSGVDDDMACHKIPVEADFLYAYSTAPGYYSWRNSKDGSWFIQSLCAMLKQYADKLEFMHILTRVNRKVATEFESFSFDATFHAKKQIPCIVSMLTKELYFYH

[7] = molecular target: T1, Sentrin-specific protease 8; experiment: inhibition of sentrin protease 8 – biochemical, luminescence, set 2, SAR follow-up (AID 588601); format: functional
Caspase-3 [8] = molecular target: T2, Caspase-3; experiment: SAR Analysis of small molecule inhibitors of Sentrin-specific proteases (SENPs) using a Caspase-3 Selectivity assay. [Related pubchem assays (depositor defined):AID2540, AID2599, AID434973, AID489001]; format: functional
[9] = molecular target: T3, Sentrin-specific protease 7 (Homo sapiens, UniProt Q9BQF6); experiment: inhibition of human SENP7 cleavage activity – biochemical, luminescence, set 2, SAR follow-up (AID 588600); format: functional
T3 sequence (Q9BQF6 whole entry): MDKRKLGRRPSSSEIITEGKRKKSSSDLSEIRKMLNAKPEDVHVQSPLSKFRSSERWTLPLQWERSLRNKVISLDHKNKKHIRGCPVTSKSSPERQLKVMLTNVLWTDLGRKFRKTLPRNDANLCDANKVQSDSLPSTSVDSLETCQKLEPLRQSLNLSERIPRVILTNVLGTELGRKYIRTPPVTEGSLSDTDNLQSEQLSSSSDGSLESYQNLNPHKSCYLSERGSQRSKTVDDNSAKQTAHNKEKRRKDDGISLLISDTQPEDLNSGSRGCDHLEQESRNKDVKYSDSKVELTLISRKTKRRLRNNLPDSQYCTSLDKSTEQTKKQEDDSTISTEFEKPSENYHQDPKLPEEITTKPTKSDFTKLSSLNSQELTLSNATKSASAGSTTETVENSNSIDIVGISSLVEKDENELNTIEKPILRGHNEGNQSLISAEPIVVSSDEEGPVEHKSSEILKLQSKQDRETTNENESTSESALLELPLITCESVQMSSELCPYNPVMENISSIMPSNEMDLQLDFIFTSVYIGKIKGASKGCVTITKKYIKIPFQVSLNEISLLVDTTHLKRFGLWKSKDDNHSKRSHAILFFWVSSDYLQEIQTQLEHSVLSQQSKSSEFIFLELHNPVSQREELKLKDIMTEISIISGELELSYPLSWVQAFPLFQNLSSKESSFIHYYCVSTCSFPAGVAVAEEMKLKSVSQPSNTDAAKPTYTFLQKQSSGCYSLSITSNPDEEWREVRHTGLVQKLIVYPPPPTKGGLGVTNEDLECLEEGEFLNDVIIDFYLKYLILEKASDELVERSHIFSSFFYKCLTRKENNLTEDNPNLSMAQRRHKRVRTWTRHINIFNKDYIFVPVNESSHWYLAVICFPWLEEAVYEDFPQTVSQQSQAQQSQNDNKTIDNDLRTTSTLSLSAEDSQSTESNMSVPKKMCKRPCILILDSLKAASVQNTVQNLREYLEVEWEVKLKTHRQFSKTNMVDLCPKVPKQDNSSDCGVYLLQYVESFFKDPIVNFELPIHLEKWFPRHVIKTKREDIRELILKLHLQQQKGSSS

[10] = molecular target: T4, Sentrin-specific protease 6 (Homo sapiens, UniProt Q9GZR1); experiment: SAR Analysis of small molecule inhibitors of Sentrin-specific protease 6 (SENP6) using a Luminescent assay. [Related pubchem assays (depositor defined):AID2582, AID2599]; format: functional
T4 sequence (Q9GZR1 whole entry): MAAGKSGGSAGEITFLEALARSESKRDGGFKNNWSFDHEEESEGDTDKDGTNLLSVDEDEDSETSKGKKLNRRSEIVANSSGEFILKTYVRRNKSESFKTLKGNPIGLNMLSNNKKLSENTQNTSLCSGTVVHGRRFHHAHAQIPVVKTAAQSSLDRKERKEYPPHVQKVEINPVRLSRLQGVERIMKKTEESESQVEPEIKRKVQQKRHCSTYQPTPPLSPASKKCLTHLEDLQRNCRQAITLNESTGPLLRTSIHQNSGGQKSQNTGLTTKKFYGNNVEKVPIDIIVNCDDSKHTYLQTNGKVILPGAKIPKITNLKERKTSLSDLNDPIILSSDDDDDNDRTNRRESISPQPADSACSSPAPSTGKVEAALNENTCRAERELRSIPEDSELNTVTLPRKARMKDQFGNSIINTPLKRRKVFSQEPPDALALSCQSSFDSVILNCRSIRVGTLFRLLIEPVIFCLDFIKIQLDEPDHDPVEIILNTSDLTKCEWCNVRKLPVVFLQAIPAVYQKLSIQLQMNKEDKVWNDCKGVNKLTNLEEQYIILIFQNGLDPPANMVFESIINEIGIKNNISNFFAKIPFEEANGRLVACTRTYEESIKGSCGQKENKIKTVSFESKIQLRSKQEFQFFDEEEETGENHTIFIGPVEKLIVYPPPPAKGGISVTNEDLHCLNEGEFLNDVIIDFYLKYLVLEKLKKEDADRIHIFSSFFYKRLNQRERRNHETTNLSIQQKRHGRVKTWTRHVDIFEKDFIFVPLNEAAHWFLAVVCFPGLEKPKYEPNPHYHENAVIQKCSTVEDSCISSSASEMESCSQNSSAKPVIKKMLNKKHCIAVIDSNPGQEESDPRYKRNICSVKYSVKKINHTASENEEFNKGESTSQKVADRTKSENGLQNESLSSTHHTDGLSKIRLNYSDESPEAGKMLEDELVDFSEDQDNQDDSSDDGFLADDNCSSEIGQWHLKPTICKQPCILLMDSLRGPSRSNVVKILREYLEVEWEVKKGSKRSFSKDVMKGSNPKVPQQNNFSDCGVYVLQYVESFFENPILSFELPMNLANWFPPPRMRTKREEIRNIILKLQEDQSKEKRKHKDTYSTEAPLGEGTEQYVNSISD

[11] = molecular target: T4, Sentrin-specific protease 6; experiment: inhibition of human SENP6 catalytic domain – biochemical, luminescence, set 2, SAR follow-up (AID 588598); format: functional
[12] = molecular target: T3, Sentrin-specific protease 7; experiment: inhibition of human SENP7 cleavage activity – biochemical, luminescence, SAR follow-up (AID 504497); format: functional
Hexokinase-1 = molecular target: T5, Hexokinase-1 (Homo sapiens, UniProt P19367); experiment: SAR analysis of small molecule inhibitors of hexokinase domain containing I (HKDC1) in the hexokinase 1 selectivity assay. [Related pubchem assays (depositor defined):AID493160, AID493190]; format: functional
T5 sequence (P19367 whole entry): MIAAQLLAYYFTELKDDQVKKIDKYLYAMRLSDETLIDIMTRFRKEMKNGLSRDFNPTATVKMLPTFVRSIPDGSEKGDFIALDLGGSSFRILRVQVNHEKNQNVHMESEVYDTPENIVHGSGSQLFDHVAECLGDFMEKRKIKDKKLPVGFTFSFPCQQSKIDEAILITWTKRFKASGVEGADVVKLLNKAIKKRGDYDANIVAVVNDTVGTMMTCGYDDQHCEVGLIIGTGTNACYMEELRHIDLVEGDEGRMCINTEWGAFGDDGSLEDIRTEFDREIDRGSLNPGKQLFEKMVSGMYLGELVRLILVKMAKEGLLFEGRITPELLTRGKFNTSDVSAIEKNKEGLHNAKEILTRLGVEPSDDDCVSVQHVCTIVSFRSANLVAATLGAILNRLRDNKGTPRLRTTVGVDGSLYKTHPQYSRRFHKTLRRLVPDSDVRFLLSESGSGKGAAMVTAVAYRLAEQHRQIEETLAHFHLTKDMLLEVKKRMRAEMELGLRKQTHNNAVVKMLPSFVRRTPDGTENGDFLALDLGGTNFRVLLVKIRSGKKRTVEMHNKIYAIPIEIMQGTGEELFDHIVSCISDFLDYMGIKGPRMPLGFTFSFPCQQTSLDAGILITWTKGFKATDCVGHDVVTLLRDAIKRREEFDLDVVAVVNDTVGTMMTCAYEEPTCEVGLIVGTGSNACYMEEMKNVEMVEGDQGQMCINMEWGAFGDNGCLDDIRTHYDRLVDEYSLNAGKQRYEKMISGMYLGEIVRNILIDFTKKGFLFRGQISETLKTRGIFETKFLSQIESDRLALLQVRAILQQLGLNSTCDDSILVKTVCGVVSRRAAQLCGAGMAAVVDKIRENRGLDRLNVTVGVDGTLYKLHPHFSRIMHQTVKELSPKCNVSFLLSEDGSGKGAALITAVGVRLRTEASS

Hexokinase HKDC1 = molecular target: T6, Hexokinase HKDC1 (Homo sapiens, UniProt Q2TB90); experiment: SAR analysis of small molecule inhibitors of hexokinase domain containing I (HKDC1). [Related pubchem assays (depositor defined):AID493160, AID493190]; format: functional
T6 sequence (Q2TB90 whole entry): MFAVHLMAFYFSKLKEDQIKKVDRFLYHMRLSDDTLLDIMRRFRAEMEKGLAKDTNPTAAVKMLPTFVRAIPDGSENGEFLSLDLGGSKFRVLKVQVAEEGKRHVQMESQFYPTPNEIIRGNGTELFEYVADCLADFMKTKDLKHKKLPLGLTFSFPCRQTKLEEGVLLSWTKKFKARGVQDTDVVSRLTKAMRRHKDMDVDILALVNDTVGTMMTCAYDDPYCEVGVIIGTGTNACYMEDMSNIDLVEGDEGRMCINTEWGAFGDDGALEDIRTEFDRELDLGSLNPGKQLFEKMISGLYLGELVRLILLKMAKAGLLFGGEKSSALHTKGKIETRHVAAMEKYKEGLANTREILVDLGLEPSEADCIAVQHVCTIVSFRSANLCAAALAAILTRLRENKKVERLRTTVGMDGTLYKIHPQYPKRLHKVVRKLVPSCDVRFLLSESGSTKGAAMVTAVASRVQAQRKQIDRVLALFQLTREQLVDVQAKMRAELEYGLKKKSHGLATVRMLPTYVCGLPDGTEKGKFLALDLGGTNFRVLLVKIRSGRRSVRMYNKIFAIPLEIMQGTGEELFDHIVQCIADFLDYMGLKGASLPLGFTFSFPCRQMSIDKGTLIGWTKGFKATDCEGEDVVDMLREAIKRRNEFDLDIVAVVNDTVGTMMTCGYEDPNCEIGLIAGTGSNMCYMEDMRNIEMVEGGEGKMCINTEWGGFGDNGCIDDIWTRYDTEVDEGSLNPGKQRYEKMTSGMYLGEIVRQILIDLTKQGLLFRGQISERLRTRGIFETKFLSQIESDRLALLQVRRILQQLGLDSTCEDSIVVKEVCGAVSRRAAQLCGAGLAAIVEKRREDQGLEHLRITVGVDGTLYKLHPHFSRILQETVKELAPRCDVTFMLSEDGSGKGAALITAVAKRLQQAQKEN

Which IC50 (Jurkat) does the source give for `COc1cccc(NC(=O)CCc2nc(-c3ccc(C(C)(C)C)cc3)no2)c1` here?
The IC50 was 0.242 µM (active).

What about the IC50 (HEK293 [1]) of the same compound?
Its IC50 is 0.24 µM (active).

And the IC50 (HEK293 [2])?
The IC50 was > 80 µM (inactive).

For `Cc1cc(C)c2c(=O)n3c(nc2c1)C(Cc1ccc(O)cc1)NC(=O)c1cc2ccccc2cc1-3` (stereo unspecified), which AC50 (DNA topoisomerase) is on record?
Its AC50 is 9.07 µM (active).

What about the IC50 [3] of the same compound?
The IC50 was > 69.5 µM (inactive).

What about the IC50 [4] of the same compound?
The IC50 was > 69.5 µM (inactive).

Which results are given for `CCCCc1ccc2nc(NC(=O)c3nccs3)sc2c1`?
IC50 [5]: 5.4 µM (active); IC50 (Caspase-3 [6]): 4.83 µM (active); IC50 [7]: 4.9 µM (active); IC50 (Caspase-3 [8]): 5.4 µM (active); IC50 [9]: 6.32 µM (active); IC50 [10]: 4.4 µM (active); IC50 [11]: 7.43 µM (active); IC50 [12]: 3.3 µM (active)

For `O=c1c2ccccc2nc(/C=C/c2ccccn2)n1-c1ccccc1`, which IC50 (Hexokinase-1) is on record?
Its IC50 is > 80 µM (inactive).

What about the IC50 (Hexokinase HKDC1) of the same compound?
Its IC50 is > 80 µM (inactive).
